Counter-ions that a name gives are not always drawn.
How the values were obtained:
E. coli 70S ribosome = experiment: Competitive fluorescence polarization assay against Cf-ARV-1502 (Ki); format: binding, E. coli BW25113; settings: 20 nmol/L Cf-ARV-1502, 0.5 µmol/L ribosome, 28 °C, 90 min + 90 min, Ki calculated from IC50
Description: E. coli 70S ribosomes were prepared using a previously described protocol that was slightly modified. Briefly, E. coli BW25113 was cultivated in Luria-Bertani (LB) medium and cells were harvested after reaching an optical density of ~4 at 600 nm by centrifugation (5000× g, 15 min, 4 °C, Rotor JLA 8.100, Avanti J-20 XP, Beckmann Coulter, Krefeld, Germany). The cell pellets were frozen and stored at −80 °C. Cells were resuspended in ribosome buffer (2 mL/g cells; 20 mmol/L HEPES-KOH, 6 mmol/L MgCl2, 30 mmol/L NH4Cl, 4 mmol/L 2-mercaptoethanol, pH 7.6). Lysozyme (0.25 g/L cell suspension) was added, and the mixture was incubated on ice for 30 min. Cells were disrupted using the bead mill homogenizer FastPrep-24™ 5G (40 s, 4 m/s, 6 cycles, MP Biomedicals Germany GmbH, Eschwege, Germany) and zirconia/silica beads (0.1 mm diameter). The lysate was centrifuged (1500× g, 5 min, 4 °C, Rotor S4180, Allegra 21R, Beckmann Coulter) and the supernatant was incubated with DNase (5 U/mL) on ice for 60 min.
Dissociation and inhibitory constants were determined in black 384-well-plates (Greiner Bio-One GmbH, Frickenhausen, Germany) blocked with 0.5% (w/v) casein in phosphate buffered saline (PBS, 8.8 mmol/L Na2HPO4×12 H2O, 1.2 mmol/L KH2PO4, 0.3 mol/L NaCl, pH 7.4) containing 0.05% (w/v) Tween® 20 (PBST) overnight at 4 °C and washed three times with PBST.
Ribosome solution was added (10 µmol/L) and the plate was incubated after centrifugation (2 min, 500× g, Rotor S2096, Allegra^TM 21R, Beckmann Coulter) at 28 °C for 90 min. Cf-labeled peptide was added (10 µL; final concentration of 20 nmol/L; final ribosome concentration of 0.5 µmol/L) and the plate was centrifuged and incubated again (90 min, 28 °C, dark). […] Kd and IC50 values were calculated by fitting the data with a variable slope parameter [y = min + (max − min)/(1 + (x/Kd) ^−Hill slope) ] using SigmaPlot 13 (Systat Software Inc., San Jose, CA, USA). The obtained IC50 values were used to calculate the Ki values.

E. coli BW25113 = experiment: Checkerboard assay (FICI); format: cell-based, Escherichia coli; settings: E. coli BW25113, 25% MHB2; synergy FICI ≤ 0.5, antagonism FICI ≥ 4; Table S6
Description: Synergy was tested in sterile 96-well plates (polystyrene F-bottom, Greiner Bio-One GmbH) using a total volume of 100 μL per well. […] Plates were incubated (37 °C, 20 h) and the optical density recorded at 595 nm using a microplate reader (Victor3, Perkin Elmer Inc., Waltham, MA, USA). The fractional inhibitory concentration index (FICI) was calculated by the equation FICI = […] = (A/MICA) + (B/MICB), where MICA/B are the MICs of an antimicrobial peptide (A) and one of the three tested antibiotics (B) alone and A and B are the MICs of combined antimicrobials. Synergy was defined as FICI ≤ 0.5, antagonism as FICI ≥ 4 and additive or indifference as FICI between 0.5 and 4.

SMILES: NC[C@H]1O[C@H](O[C@H]2[C@H](O)[C@@H](O[C@H]3O[C@H](CO)[C@@H](O)[C@H](N)[C@H]3O)[C@H](N)C[C@@H]2N)[C@H](O)[C@@H](O)[C@@H]1O [Kanamycin, kanamycin sulfate]
- Ki (nmol/L), competition with Cf-ARV-1502 (E. coli 70S ribosome): no fit
- Ki (nmol/L), competition with Cf-ARV-1502 (E. coli 70S ribosome; listed as kanamycin): did not affect the binding of Cf-ARV-1502
- Checkerboard assay (FICI), antibiotic combined with peptide (E. coli BW25113): neither synergistic nor antagonistic effects
